Laboratory results published in PubChem BioAssay (NCI).
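Values below derive from 48-hour exposures of cells grown in 96-well plates, with endpoints linearly interpolated between the two concentrations bracketing the appropriate inhibition level. TGI: concentration producing complete growth inhibition.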

Legend:
Experiment in all cases: NCI anticancer screen, dose series, 48 h
[1] = tested on: 786-0 renal
[2] = tested on: A549 NSCLC
[3] = tested on: ACHN renal
[4] = tested on: CAKI-1 renal
[5] = tested on: CCRF-CEM leukemia
[6] = tested on: COLO 205 colon
[7] = tested on: DLD-1 colon
[8] = tested on: DMS 114 small cell lung
[9] = tested on: EKVX NSCLC
[10] = tested on: HCC-2998 colon
[11] = tested on: HCT-15 colon
[12] = tested on: HL-60(TB) leukemia
[13] = tested on: HOP-92 NSCLC
[14] = tested on: HT29 colon
[15] = tested on: IGROV1 ovarian
[16] = tested on: K-562 leukemia
[17] = tested on: KM12 colon
[18] = tested on: KM20L2 colon
[19] = tested on: LXFL 529 NSCLC
[20] = tested on: M14 melanoma
[21] = tested on: M19-MEL melanoma
[22] = tested on: MALME-3M melanoma
[23] = tested on: MOLT-4 leukemia
[24] = tested on: NCI-H23 lung
[25] = tested on: NCI-H522 lung
[26] = tested on: OVCAR-3 ovarian
[27] = tested on: OVCAR-4 ovarian
[28] = tested on: OVCAR-5 ovarian
[29] = tested on: OVCAR-8 ovarian
[30] = tested on: RXF 393 renal
[31] = tested on: RXF-631 renal
[32] = tested on: SF-268 CNS
[33] = tested on: SF-295 CNS
[34] = tested on: SF-539 CNS
[35] = tested on: SK-MEL-2 melanoma
[36] = tested on: SK-MEL-28 melanoma
[37] = tested on: SK-MEL-5 melanoma
[38] = tested on: SK-OV-3 ovarian
[39] = tested on: SN12C renal
[40] = tested on: SNB-19 CNS
[41] = tested on: SNB-78 CNS
[42] = tested on: SR leukemia
[43] = tested on: SW-620 colon
[44] = tested on: TK-10 renal
[45] = tested on: U251 CNS
[46] = tested on: UACC-62 melanoma
[47] = tested on: UO-31 renal
[48] = tested on: XF 498 CNS
[49] = tested on: DMS 273 small cell lung
[50] = tested on: HCT-116 colon
[51] = tested on: HOP-62 NSCLC
[52] = tested on: LOX IMVI melanoma
[53] = tested on: NCI-H226 lung
[54] = tested on: NCI-H460 lung
[55] = tested on: UACC-257 melanoma
[56] = tested on: A498 renal
[57] = tested on: SNB-75 CNS

`COc1cc(/C=C(\NC(=O)c2ccccc2)c2nc3[nH]c(=S)[nH]c(=O)c3[nH]2)cc(OC)c1OC` showed a TGI [1] greater than 100 µM, a TGI [2] greater than 100 µM and a TGI [3] greater than 100 µM. It also gave a TGI [4] greater than 100 µM, a TGI [5] greater than 100 µM and a TGI [6] greater than 100 µM. It also gave a TGI [7] greater than 100 µM, a TGI [8] greater than 100 µM and a TGI [9] greater than 100 µM. The TGI [10] was greater than 100 µM, the TGI [11] was greater than 100 µM and the TGI [12] was greater than 100 µM. It also gave a TGI [13] greater than 100 µM, a TGI [14] greater than 100 µM and a TGI [15] greater than 100 µM. For the same compound, the TGI [16] was greater than 100 µM, the TGI [17] was greater than 100 µM and the TGI [18] was greater than 100 µM. It also gave a TGI [19] greater than 100 µM, a TGI [20] greater than 100 µM and a TGI [21] greater than 100 µM. For the same compound, the TGI [22] was greater than 100 µM, the TGI [23] was greater than 100 µM and the TGI [24] was greater than 100 µM. For the same compound, the TGI [25] was greater than 100 µM, the TGI [26] was greater than 100 µM and the TGI [27] was greater than 100 µM. The TGI [28] was greater than 100 µM, the TGI [29] was greater than 100 µM and the TGI [30] was greater than 100 µM. For the same compound, the TGI [31] was greater than 100 µM, the TGI [32] was greater than 100 µM and the TGI [33] was greater than 100 µM. The TGI [34] was greater than 100 µM, the TGI [35] was greater than 100 µM and the TGI [36] was greater than 100 µM. The TGI [37] was greater than 100 µM, the TGI [38] was greater than 100 µM and the TGI [39] was greater than 100 µM. It also gave a TGI [40] greater than 100 µM, a TGI [41] greater than 100 µM and a TGI [42] greater than 100 µM. For the same compound, the TGI [43] was greater than 100 µM, the TGI [44] was greater than 100 µM and the TGI [45] was greater than 100 µM. It also gave a TGI [46] greater than 100 µM, a TGI [47] greater than 100 µM and a TGI [48] greater than 100 µM.
`CN=c1ssc(/N=C(\SC)N(C)C)[n+]1C` gave a TGI [1] greater than 100 µM, a TGI [2] greater than 100 µM and a TGI [3] greater than 100 µM. It also gave a TGI [4] greater than 100 µM, a TGI [5] greater than 100 µM and a TGI [49] greater than 100 µM. It also gave a TGI [9] greater than 100 µM, a TGI [10] greater than 100 µM and a TGI [50] greater than 100 µM. It also gave a TGI [11] greater than 100 µM, a TGI [12] greater than 100 µM and a TGI [51] greater than 100 µM. The TGI [13] was greater than 100 µM, the TGI [14] was greater than 100 µM and the TGI [15] was greater than 100 µM. It also gave a TGI [16] greater than 100 µM, a TGI [17] greater than 100 µM and a TGI [52] greater than 100 µM. It also gave a TGI [19] greater than 100 µM, a TGI [20] greater than 100 µM and a TGI [23] greater than 100 µM. For the same compound, the TGI [53] was greater than 100 µM, the TGI [24] was greater than 100 µM and the TGI [54] was greater than 100 µM. The TGI [25] was greater than 100 µM, the TGI [28] was greater than 100 µM and the TGI [29] was greater than 100 µM. It also gave a TGI [30] greater than 100 µM, a TGI [31] greater than 100 µM and a TGI [32] greater than 100 µM. For the same compound, the TGI [33] was greater than 100 µM, the TGI [35] was greater than 100 µM and the TGI [36] was greater than 100 µM. For the same compound, the TGI [37] was greater than 100 µM, the TGI [38] was greater than 100 µM and the TGI [39] was greater than 100 µM. The TGI [40] was greater than 100 µM, the TGI [41] was greater than 100 µM and the TGI [42] was greater than 100 µM. For the same compound, the TGI [43] was greater than 100 µM, the TGI [44] was greater than 100 µM and the TGI [45] was greater than 100 µM. The TGI [55] was greater than 100 µM, the TGI [46] was greater than 100 µM and the TGI [47] was greater than 100 µM. The TGI [48] was greater than 100 µM.
Work on `CC1CC[C@@]23CCC4(C)[C@@](C=CC5[C@@]6(C)CCC(=O)C(C)(C)C6CC[C@]54C)(OC2=O)[C@@H]3[C@H]1C` (stereo partly specified) yielded a TGI [1] greater than 100 µM, a TGI [56] of 62.5 µM and a TGI [2] of 81 µM. The TGI [3] was 78.2 µM, the TGI [4] was greater than 100 µM and the TGI [5] was 53.4 µM. The TGI [6] was 27.7 µM, the TGI [7] was greater than 100 µM and the TGI [8] was 34.1 µM. For the same compound, the TGI [9] was 82.9 µM, the TGI [50] was 22.7 µM and the TGI [12] was 13.3 µM. The TGI [51] was 42.6 µM, the TGI [13] was 41.7 µM and the TGI [14] was 51.3 µM. For the same compound, the TGI [15] was greater than 100 µM, the TGI [16] was greater than 100 µM and the TGI [17] was 36.8 µM. It also gave a TGI [18] greater than 100 µM, a TGI [52] of 36.3 µM and a TGI [19] of 74.7 µM. It also gave a TGI [20] greater than 100 µM, a TGI [21] of 68.5 µM and a TGI [22] of 52 µM. The TGI [23] was 27.8 µM, the TGI [53] was 58.9 µM and the TGI [24] was 42 µM. For the same compound, the TGI [54] was 58 µM, the TGI [25] was 37.9 µM and the TGI [26] was 39.3 µM. It also gave a TGI [27] greater than 100 µM, a TGI [29] greater than 100 µM and a TGI [30] of 41.2 µM. For the same compound, the TGI [31] was 71.4 µM, the TGI [32] was greater than 100 µM and the TGI [33] was 73.2 µM. The TGI [34] was 86.3 µM, the TGI [36] was greater than 100 µM and the TGI [37] was 28.5 µM. It also gave a TGI [38] of 80 µM, a TGI [39] greater than 100 µM and a TGI [40] greater than 100 µM. For the same compound, the TGI [57] was 55 µM, the TGI [41] was 67.9 µM and the TGI [42] was 26.5 µM. It also gave a TGI [43] greater than 100 µM, a TGI [44] of 56.5 µM and a TGI [45] of 52.9 µM. For the same compound, the TGI [55] was 52.8 µM, the TGI [46] was greater than 100 µM and the TGI [47] was 40.2 µM. For the same compound, the TGI [48] was 34.2 µM.
